According to article PMC12281142, “A potent phenylalkylamine disrupts mycobacterial membrane bioenergetics and augments bactericidal activity of bedaquiline” (iScience, 2025):
Values after ≈ are worked out from the molar mass of the structure shown. Values joined by “and” are separate entries in the source; they are usually repeats but may differ in a detail not shown here. Equal entries are not always repeated. Where two headings read alike, the source gives them in different places.

Assays:
[1] = test system: M. bovis BCG; format: cell-based, Mycobacterium bovis BCG; conditions: 0.5x to 4x MIC90BCG
[2] = test system: M. smegmatis mc2155; assay: MIC against M. smegmatis mc2155; format: cell-based, Mycobacterium smegmatis; conditions: Mycolicibacterium smegmatis
[3] = test system: Vero E6; assay: Cytotoxicity in Vero E6 cells; format: cell-based, African green monkey; conditions: growth suppressed by 50% vs untreated
Method in brief: (§1)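 Cells seeded at 50,000/well, allowed to adhere overnight in DMEM at 37 °C/5% CO2, then exposed 48 h to compound at a final 0.5% v/v DMSO. Viability read by MTS-type reagent (3 h, absorbance 490 nm), corrected for compound and vehicle blanks, and normalized to untreated cells. IC50 from sigmoidal fit of viability versus log concentration, at least 3 determinations.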

[4] = test system: Mab abscessus ATCC 19977; assay: MIC against Mab abscessus ATCC 19977; format: cell-based, Mycobacterium abscessus subsp. abscessus; conditions: Mycobacteroides abscessus; for MIC50: ATCC19977, 72 h, 3 days
[5] = test system: nonreplicating M. bovis BCG; format: cell-based, Mycobacterium bovis BCG; conditions: 5 days, Wayne model
[6] = test system: M. bovis BCG; assay: microbe, parasite or virus in culture; format: cell-based, Mycobacterium bovis BCG
[7] = test system: Mtb H37Rv; assay: MIC by broth microdilution against Mtb H37Rv; format: cell-based, Mycobacterium tuberculosis; conditions: Mycobacterium tuberculosis, H37RV, 120 h
[8] = test system: M. bovis BCG; conditions: 2x MIC90 over 24 h
[9] = test system: M. bovis BCG-pclgR-RFP; format: cell-based, Mycobacterium bovis BCG; conditions: 0.25x – 2x MIC90 (controls 10 μM), 24 h
[10] = test system: M. bovis BCG; format: cell-based, Mycobacterium bovis BCG; conditions: 2x MIC90BCG, 6 h time point, cultures still viable
[11] = test system: M. bovis BCG; format: cell-based, Mycobacterium bovis BCG; conditions: 2x MIC90 (19 μg/mL)
[12] = test system: M. bovis BCG; format: cell-based, Mycobacterium bovis BCG; conditions: PhA2 2x–4x MIC90BCG, TDZ 80 μM, 24 h
[13] = test system: Mab bolletii CCUG 50184-T; assay: MIC against Mab bolletii CCUG 50184-T; format: cell-based, Mycobacterium abscessus subsp. bolletii; conditions: Mycobacteroides abscessus; for MIC50: CCUG50184, 72 h, 3 days
[14] = test system: Mab massiliense CCUG 48898-T; assay: MIC against Mab massiliense CCUG 48898-T; format: cell-based, Mycobacterium abscessus subsp. massiliense; conditions: Mycobacteroides abscessus; for MIC50: CCUG48898, 72 h, 3 days
[15] = test system: M. bovis BCG; format: cell-based, Mycobacterium bovis BCG; conditions: 24 h
[16] = test system: Mab abscessus; assay: Time-kill kinetics, Mab abscessus; format: cell-based, Mycobacterium abscessus subsp. abscessus; conditions: 2xMIC90 (170 μM, 89 μg/mL)
[17] = test system: cat papillary muscle; conditions: cited from earlier work
[18] = test system: M. bovis BCG; format: cell-based, Mycobacterium bovis BCG; conditions: exponential phase M. bovis BCG, 5 days
[19] = test system: clinical isolates of Mab; assay: MIC50 against Mab clinical isolates; format: cell-based, Mycobacterium abscessus; conditions: Mycobacteroides abscessus
[20] = test system: HepG2; assay: Cytotoxicity in HepG2 cells; format: cell-based, human; conditions: Homo sapiens, HepG2; 48 h, growth suppressed by 50% vs untreated
Method in brief: as §1

[21] = test system: M. bovis BCG; format: cell-based, Mycobacterium bovis BCG; conditions: luminescence normalized against CFU
[22] = 7H9 medium (first value of cell)
[23] = CA-MHB medium (second value of cell)

## CCCCCCCCC(C#N)(CCCN(C)CCc1ccc(OC)c(OC)c1)c1ccc(OC)c(OC)c1 (stereo not shown) [PhA2]
[1]
  formazan formation from MTS: dose dependent reduction in formazan
[2]; MC2155, 24 h, incubation 1 day, read-out: M. smegmatis mc2155 MIC50 (Table S4)
  MIC50: 41 µM (≈ 21.5 µg/mL)
[2]; MC2155, 24 h, incubation 1 day, read-out: M. smegmatis mc2155 MIC90 (Table S4)
  MIC90: 58 µM (≈ 30.4 µg/mL)
[2]; MC2155, read-out: MIC90 M. smegmatis
  MIC90: 52.5 µM (≈ 27.5 µg/mL)
[3]; 48 h
  IC50: 28 µM
[3]; Chlorocebus sabaeus, Vero C1008, 48 h
  IC50: 28 to 29 µM
[4]; ATCC19977, 7H9 broth (first value), read-out: MIC90 Mab abscessus ATCC 19977
  MIC90: 85 µM (≈ 44.6 µg/mL)
[4]; [22]
  MIC50: 54 µM (≈ 28.3 µg/mL)
[4]; [23]
  MIC50: 19 µM (≈ 9.97 µg/mL)
[4]; ATCC19977, Mab abscessus, read-out: MIC90 abscessus
  MIC90: 85 µM and 45 µg/mL
[4]; ATCC19977, camH broth (second value), read-out: MIC90 Mab abscessus ATCC 19977
  MIC90: 26 µM (≈ 13.6 µg/mL)
[5]; 2x MIC90BCG
  kill of hypoxic M. bovis BCG: resisted killing
[5]; 4x MIC90BCG
  kill of hypoxic M. bovis BCG: 10^3 fold
[6]; M. bovis BCG
  MIC90 BCG: 9 µg/mL (≈ 17.2 µM)
[6]; M. bovis BCG, broth dilution, growth reduced by 50% vs untreated
  MIC50: 10 µM (≈ 5.25 µg/mL)
[6]; Mycobacterium tuberculosis variant bovis BCG, BCG, 120 h, read-out: MIC50 BCG With Glycerol, 7H9 broth with glycerol, 5 days
  MIC50: 10 µM (≈ 5.25 µg/mL)
[6]; Mycobacterium tuberculosis variant bovis BCG, BCG, 120 h, read-out: MIC50 BCG Without Glycerol, 7H9 broth without glycerol, 5 days
  MIC50: 22 µM (≈ 11.5 µg/mL)
[6]; Mycobacterium tuberculosis variant bovis BCG, BCG, M. bovis BCG, broth dilution, growth reduced by 50% vs untreated
  MIC50: 10 to 16 µM (≈ 5.25 to 8.4 µg/mL)
[6]; Mycobacterium tuberculosis variant bovis BCG, BCG, M. bovis BCG, broth dilution, growth reduced by 90% vs untreated
  MIC90: 18 µM
[6]; Mycobacterium tuberculosis variant bovis BCG, BCG, read-out: M. bovis BCG MIC50 (Table S4)
  MIC50: 10 µM (≈ 5.25 µg/mL)
[6]; Mycobacterium tuberculosis variant bovis BCG, BCG, read-out: M. bovis BCG MIC90 (Table S4)
  MIC90: 18 µM
[6]; Mycobacterium tuberculosis variant bovis BCG, BCG, read-out: MIC90 (Table S1), M. bovis BCG, broth dilution
  MIC90: 18 µM
[6]; Mycobacterium tuberculosis variant bovis BCG, BCG, read-out: MIC90 BCG, M. bovis BCG
  MIC90: 9.4 µg/mL
[7]; read-out: MIC50 Mtb H37Rv
  MIC50: 17 µM (≈ 8.92 µg/mL)
[7]; second value of cell MIC50/MIC90, incubation 5 days, read-out: MIC90 Mtb H37Rv
  MIC90: 25 µM (≈ 13.1 µg/mL)
[8]
  membrane permeabilization: induced membrane permeabilization
[9]
  induction of pclgR promoter activity: induced promoter activity in a dose dependent manner
[10]
  membrane depolarization: depolarization was evident
[11]
  oxygen consumption rate: uptake was reduced to the basal level
[12]
  NADH/NAD+ ratio: higher ratios
[13]; CCUG50184, 7H9 broth (first value)
  MIC90: 95 µM (≈ 49.9 µg/mL)
[13]; [22]
  MIC50: 62 µM (≈ 32.5 µg/mL)
[13]; [23]
  MIC50: 16 µM (≈ 8.4 µg/mL)
[13]; CCUG50184, camH broth (second value)
  MIC90: 27 µM (≈ 14.2 µg/mL)
[14]; CCUG48898, 7H9 broth (first value)
  MIC90: 91 µM (≈ 47.8 µg/mL)
[14]; [22]
  MIC50: 61 µM (≈ 32 µg/mL)
[14]; [23]
  MIC50: 11 µM (≈ 5.77 µg/mL)
[14]; CCUG48898, camH broth (second value)
  MIC90: 28 µM (≈ 14.7 µg/mL)
[15]; 0.5x and 1x MIC90BCG
  methylene blue decolorization (O2 uptake): Decolorization (active O2 uptake)
[15]; 2x and 4x MIC90BCG
  methylene blue decolorization (O2 uptake): No decolorization
[16]
  reduction of CFUs: 10^5 fold
[17]
  ED50 (concentration to reduce maximal contractility of the papillary muscle by 50%): 130 µM
[18]
  MBC99.9 (10^3-fold kill): 2 x MIC90
[19]; read-out: MIC50 seven Mab clinical isolates
  MIC50: 22 to 39 µM
[19]; Mab clinical isolate M9, 7H9 broth, read-out: MIC50 M9
  MIC50: 26.5 µM
[19]; Mab clinical isolate M111, 7H9 broth, read-out: MIC50 M111
  MIC50: 24 µM
[19]; Mab clinical isolate M232, 7H9 broth, read-out: MIC50 M232
  MIC50: 22 µM
[19]; Mab clinical isolate M337, 7H9 broth, read-out: MIC50 M337
  MIC50: 25 µM
[19]; Mab clinical isolate M404, 7H9 broth, read-out: MIC50 M404
  MIC50: 26.5 µM
[19]; Mab clinical isolate M422, 7H9 broth, read-out: MIC50 M422
  MIC50: 23 µM
[19]; Mab clinical isolate M506, 7H9 broth, read-out: MIC50 M506
  MIC50: 23.5 µM
[19]; range over isolates, read-out: MIC50 seven Mab clinical isolates
  MIC50: 12 to 21 µg/mL
[20]
  IC50: 29 µM
[21]; 2x MIC90, 12 h
  ATP level: 73%
[21]; 2x MIC90, 48 h
  ATP level: 27%
